{"source": "patent US9833497B2", "about": "“Human originated EGF domain proteins and use of the same” (CHENGDU SOURCEBIO LIMITED-LIABILITY COMPANY, priority 2013, dated 2017)"}
{"system": "E. coli DH5α", "assay": "Antibacterial activity: MIC and growth curve against E. coli DH5α in 96-well plate", "assay_type": "cell-based", "conditions": "minimal inhibitory concentration against E. coli DH5α; 96-well plate, 5×10^5 CFU/mL, 37° C., judged after 8 h", "procedure,_shortened": "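Log-phase bacteria (OD600 ~0.5) resuspended in LB at 5×10^5 CFU/mL, exposed to recombinant protein at 50, 25, 12.5 μg/mL final in triplicate, 37 °C shaking at 175 rpm. OD600 read every 30 min; MIC is lowest concentration showing no growth.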", "units": {"MIC": "µg/mL"}}
{"substance": "PRT956 (NIDDCAFASCTPGSTCIDRVASFSCMCPEGKAGLLCH; listed as Homo sapiens)", "MIC": 12.5}
{"substance": "PRT854 (TCSMANCQYGCDVVKGQIRCQCPSPGLQLAPDGRTCV; listed as Homo sapiens)", "MIC": 12.5}
{"substance": "PRT898 (NNNECESNPCVNGGTCKDMTSGYVCTCREGFSGPNCQ; listed as Homo sapiens)", "MIC": 25}
{"system": "E. coli BL21", "assay": "MIC against Gram-negative bacteria: E. coli BL21", "assay_type": "cell-based", "conditions": "E. coli BL21; 10 h cultivation at 37° C.", "procedure,_shortened": "(§1)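 The recombinant human-originated EGF domain proteins were serially diluted two-fold against bacteria at 5×10^5 CFU/mL in LB medium. After shaken incubation at 37° C, the lowest concentration with no bacterial growth was recorded as the MIC.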", "units": {"MIC": "µg/mL"}}
{"substance": "PRT956 (NIDDCAFASCTPGSTCIDRVASFSCMCPEGKAGLLCH; listed as Homo sapiens)", "MIC": 12.5}
{"substance": "PRT898 (NNNECESNPCVNGGTCKDMTSGYVCTCREGFSGPNCQ; listed as Homo sapiens)", "MIC": 50}
{"system": "E. coli BL21", "assay": "MIC against Gram-negative bacteria: E. coli BL21", "assay_type": "cell-based", "conditions": "E. coli BL21; 10 h cultivation at 37° C.; 5×10^5 CFU/mL", "procedure,_shortened": "as §1", "units": {"MIC (μg/mL) E. coli BL21": "µg/mL"}}
{"substance": "PRT854 (TCSMANCQYGCDVVKGQIRCQCPSPGLQLAPDGRTCV; listed as Homo sapiens)", "MIC (μg/mL) E. coli BL21": 12.5}
{"system": "Pseudomonas aeruginosa", "assay": "MIC against Gram-negative bacteria: Pseudomonas aeruginosa", "assay_type": "cell-based", "conditions": "P. aeruginosa; 10 h cultivation at 37° C.", "procedure,_shortened": "as §1", "units": {"MIC": "µg/mL"}}
{"substance": "PRT956 (NIDDCAFASCTPGSTCIDRVASFSCMCPEGKAGLLCH; listed as Homo sapiens)", "MIC": 12.5}
{"substance": "PRT898 (NNNECESNPCVNGGTCKDMTSGYVCTCREGFSGPNCQ; listed as Homo sapiens)", "MIC": 25}
{"system": "Pseudomonas aeruginosa", "assay": "MIC against Gram-negative bacteria: Pseudomonas aeruginosa", "assay_type": "cell-based", "conditions": "P. aeruginosa; 10 h cultivation at 37° C.; 5×10^5 CFU/mL", "procedure,_shortened": "as §1", "units": {"MIC (μg/mL) P. aeruginosa": "µg/mL"}}
{"substance": "PRT854 (TCSMANCQYGCDVVKGQIRCQCPSPGLQLAPDGRTCV; listed as Homo sapiens)", "MIC (μg/mL) P. aeruginosa": 100}
{"system": "Klebsiella pneumonia", "assay": "MIC against Gram-negative bacteria: Klebsiella pneumonia", "assay_type": "cell-based", "conditions": "K. pneumonia; 10 h cultivation at 37° C.", "procedure,_shortened": "as §1", "units": {"MIC": "µg/mL"}}
{"substance": "PRT956 (NIDDCAFASCTPGSTCIDRVASFSCMCPEGKAGLLCH; listed as Homo sapiens)", "MIC": 25}
{"substance": "PRT898 (NNNECESNPCVNGGTCKDMTSGYVCTCREGFSGPNCQ; listed as Homo sapiens)", "MIC": 12.5}
{"system": "Klebsiella pneumonia", "assay": "MIC against Gram-negative bacteria: Klebsiella pneumonia", "assay_type": "cell-based", "conditions": "K. pneumonia; 10 h cultivation at 37° C.; 5×10^5 CFU/mL", "procedure,_shortened": "as §1", "units": {"MIC (μg/mL) K. pneumonia": "µg/mL"}}
{"substance": "PRT854 (TCSMANCQYGCDVVKGQIRCQCPSPGLQLAPDGRTCV; listed as Homo sapiens)", "MIC (μg/mL) K. pneumonia": 12.5}
{"system": "Enterobacter cloacae", "assay": "MIC against Gram-negative bacteria: Enterobacter cloacae", "assay_type": "cell-based", "conditions": "E. cloacae; 10 h cultivation at 37° C.", "procedure,_shortened": "as §1", "units": {"MIC": "µg/mL"}}
{"substance": "PRT956 (NIDDCAFASCTPGSTCIDRVASFSCMCPEGKAGLLCH; listed as Homo sapiens)", "MIC": 12.5}
{"substance": "PRT898 (NNNECESNPCVNGGTCKDMTSGYVCTCREGFSGPNCQ; listed as Homo sapiens)", "MIC": 50}
{"system": "Enterobacter cloacae", "assay": "MIC against Gram-negative bacteria: Enterobacter cloacae", "assay_type": "cell-based", "conditions": "E. cloacae; 10 h cultivation at 37° C.; 5×10^5 CFU/mL", "procedure,_shortened": "as §1", "units": {"MIC (μg/mL) E. cloacae": "µg/mL"}}
{"substance": "PRT854 (TCSMANCQYGCDVVKGQIRCQCPSPGLQLAPDGRTCV; listed as Homo sapiens)", "MIC (μg/mL) E. cloacae": 12.5}
{"system": "Aeromonas hydrophila", "assay": "MIC against Gram-negative bacteria: Aeromonas hydrophila", "assay_type": "cell-based", "conditions": "A. hydrophila; 10 h cultivation at 37° C.", "procedure,_shortened": "as §1", "units": {"MIC": "µg/mL"}}
{"substance": "PRT956 (NIDDCAFASCTPGSTCIDRVASFSCMCPEGKAGLLCH; listed as Homo sapiens)", "MIC": 25}
{"substance": "PRT898 (NNNECESNPCVNGGTCKDMTSGYVCTCREGFSGPNCQ; listed as Homo sapiens)", "MIC": 12.5}
{"system": "Aeromonas hydrophila", "assay": "MIC against Gram-negative bacteria: Aeromonas hydrophila", "assay_type": "cell-based", "conditions": "A. hydrophila; 10 h cultivation at 37° C.; 5×10^5 CFU/mL", "procedure,_shortened": "as §1", "units": {"MIC (μg/mL) A. hydrophila": "µg/mL"}}
{"substance": "PRT854 (TCSMANCQYGCDVVKGQIRCQCPSPGLQLAPDGRTCV; listed as Homo sapiens)", "MIC (μg/mL) A. hydrophila": 12.5}
{"system": "Citrobacter diversus", "assay": "MIC against Gram-negative bacteria: Citrobacter diversus", "assay_type": "cell-based", "conditions": "C. diversus; 10 h cultivation at 37° C.", "procedure,_shortened": "as §1", "units": {"MIC": "µg/mL"}}
{"substance": "PRT956 (NIDDCAFASCTPGSTCIDRVASFSCMCPEGKAGLLCH; listed as Homo sapiens)", "MIC": 25}
{"substance": "PRT898 (NNNECESNPCVNGGTCKDMTSGYVCTCREGFSGPNCQ; listed as Homo sapiens)", "MIC": 12.5}
{"system": "Citrobacter diversus", "assay": "MIC against Gram-negative bacteria: Citrobacter diversus", "assay_type": "cell-based", "conditions": "C. diversus; 10 h cultivation at 37° C.; 5×10^5 CFU/mL", "procedure,_shortened": "as §1", "units": {"MIC (μg/mL) C. diversus": "µg/mL"}}
{"substance": "PRT854 (TCSMANCQYGCDVVKGQIRCQCPSPGLQLAPDGRTCV; listed as Homo sapiens)", "MIC (μg/mL) C. diversus": 12.5}
{"system": "Moraxella catarrhalis", "assay": "MIC against Gram-negative bacteria: Moraxella catarrhalis", "assay_type": "cell-based", "conditions": "M. catarrhalis; 10 h cultivation at 37° C.", "procedure,_shortened": "as §1", "units": {"MIC": "µg/mL"}}
{"substance": "PRT956 (NIDDCAFASCTPGSTCIDRVASFSCMCPEGKAGLLCH; listed as Homo sapiens)", "MIC": 12.5}
{"substance": "PRT898 (NNNECESNPCVNGGTCKDMTSGYVCTCREGFSGPNCQ; listed as Homo sapiens)", "MIC": 12.5}
{"system": "Moraxella catarrhalis", "assay": "MIC against Gram-negative bacteria: Moraxella catarrhalis", "assay_type": "cell-based", "conditions": "M. catarrhalis; 10 h cultivation at 37° C.; 5×10^5 CFU/mL", "procedure,_shortened": "as §1", "units": {"MIC (μg/mL) M. catarrhalis": "µg/mL"}}
{"substance": "PRT854 (TCSMANCQYGCDVVKGQIRCQCPSPGLQLAPDGRTCV; listed as Homo sapiens)", "MIC (μg/mL) M. catarrhalis": 50}
{"system": "Proteus mirabilis", "assay": "MIC against Gram-negative bacteria: Proteus mirabilis", "assay_type": "cell-based", "conditions": "P. mirabilis; 10 h cultivation at 37° C.", "procedure,_shortened": "as §1", "units": {"MIC": "µg/mL"}}
{"substance": "PRT956 (NIDDCAFASCTPGSTCIDRVASFSCMCPEGKAGLLCH; listed as Homo sapiens)", "MIC": 25}
{"substance": "PRT898 (NNNECESNPCVNGGTCKDMTSGYVCTCREGFSGPNCQ; listed as Homo sapiens)", "MIC": 12.5}
{"system": "Proteus mirabilis", "assay": "MIC against Gram-negative bacteria: Proteus mirabilis", "assay_type": "cell-based", "conditions": "P. mirabilis; 10 h cultivation at 37° C.; 5×10^5 CFU/mL", "procedure,_shortened": "as §1", "units": {"MIC (μg/mL) P. mirabilis": "µg/mL"}}
{"substance": "PRT854 (TCSMANCQYGCDVVKGQIRCQCPSPGLQLAPDGRTCV; listed as Homo sapiens)", "MIC (μg/mL) P. mirabilis": 12.5}
{"system": "Proteus vulgaris", "assay": "MIC against Gram-negative bacteria: Proteus vulgaris", "assay_type": "cell-based", "conditions": "P. vulgaris; 10 h cultivation at 37° C.", "procedure,_shortened": "as §1", "units": {"MIC": "µg/mL"}}
{"substance": "PRT956 (NIDDCAFASCTPGSTCIDRVASFSCMCPEGKAGLLCH; listed as Homo sapiens)", "MIC": 50}
{"substance": "PRT898 (NNNECESNPCVNGGTCKDMTSGYVCTCREGFSGPNCQ; listed as Homo sapiens)", "MIC": 25}
{"system": "Proteus vulgaris", "assay": "MIC against Gram-negative bacteria: Proteus vulgaris", "assay_type": "cell-based", "conditions": "P. vulgaris; 10 h cultivation at 37° C.; 5×10^5 CFU/mL", "procedure,_shortened": "as §1", "units": {"MIC (μg/mL) P. vulgaris": "µg/mL"}}
{"substance": "PRT854 (TCSMANCQYGCDVVKGQIRCQCPSPGLQLAPDGRTCV; listed as Homo sapiens)", "MIC (μg/mL) P. vulgaris": 50}
{"system": "Serratia marcescens", "assay": "MIC against Gram-negative bacteria: Serratia marcescens", "assay_type": "cell-based", "conditions": "S. marcescens; 10 h cultivation at 37° C.", "procedure,_shortened": "as §1", "units": {"MIC": "µg/mL"}}
{"substance": "PRT956 (NIDDCAFASCTPGSTCIDRVASFSCMCPEGKAGLLCH; listed as Homo sapiens)", "MIC": 25}
{"substance": "PRT898 (NNNECESNPCVNGGTCKDMTSGYVCTCREGFSGPNCQ; listed as Homo sapiens)", "MIC": 12.5}
{"system": "Serratia marcescens", "assay": "MIC against Gram-negative bacteria: Serratia marcescens", "assay_type": "cell-based", "conditions": "S. marcescens; 10 h cultivation at 37° C.; 5×10^5 CFU/mL", "procedure,_shortened": "as §1", "units": {"MIC (μg/mL) S. marcescens": "µg/mL"}}
{"substance": "PRT854 (TCSMANCQYGCDVVKGQIRCQCPSPGLQLAPDGRTCV; listed as Homo sapiens)", "MIC (μg/mL) S. marcescens": 12.5}
